Assays:
[1] = tested on: mustard beetle larvae (Phaedon cochleariae); experiment: Phaedon cochleariae spray test (Chinese cabbage leaf disks); format: in vivo; details: foliar, 168 h, read-out: mortality in %
From the text: Phaedon cochleariae—Spray Test
Solvent: 78.0 parts by weight of acetone
• 1.5 parts by weight of dimethylformamide Emulsifier: alkylarylpolyglycol ether
Chinese cabbage (Brassica pekinensis) leaf disks are sprayed with a preparation of the active ingredient of the desired concentration.

[2] = tested on: green peach aphid (Myzus persicae); experiment: Myzus persicae spray test (Chinese cabbage leaf disks); format: in vivo; details: Myzus persicae, foliar, 144 h, read-out: mortality in %
Protocol: Myzus persicae—Spray Test
(§1) Solvent: 78.0 parts by weight acetone
(§2) • 1.5 parts by weight dimethylformamide Emulsifier: alkylarylpolyglycol ether
Chinese cabbage (Brassica pekinensis) leaf disks infected with all instars of the green peach aphid (Myzus persicae), are sprayed with a preparation of the active ingredient of the desired concentration.
(§3) After 6 days mortality in % is determined.

[3] = tested on: adult engorged female ticks (Boophilus microplus); experiment: Boophilus microplus injection test (BOOPMI Inj); format: in vivo; details: 20 μg/animal, egg deposition after 7 days
Protocol: Boophilus microplus—Injectiontest (BOOPMI Inj)
(§4) Solvent: dimethyl sulfoxide
Five adult engorged female ticks (Boophilus microplus) are injected with 1 μl compound solution into the abdomen. The ticks are transferred into replica plates and incubated in a climate chamber.
(§5) After 7 days egg deposition of fertile eggs is monitored. Eggs where fertility is not visible are stored in a climate chamber till hatching after about 42 days. An efficacy of 100% means all eggs are infertile; 0% means all eggs are fertile.

[4] = tested on: adult unfed cat fleas (Ctenocephalides felis); experiment: Ctenocephalides felis oral test (CTECFE); format: in vivo; details: 48 h, read-out: mortality in %
Protocol: Ctenocephalides felis—Oral Test (CTECFE)
as §4
Approximately 20 adult unfed cat fleas (Ctenocephalides felis) are placed in flea chambers. The blood chamber, sealed with parafilm on the bottom, are filled with cattle blood supplied with compound solution and placed on the gauze covered top of the flea chamber, so that the fleas are able to suck the blood. The blood chamber is heated to 37° C. whereas the flea chamber is kept at room temperature.

[5] = tested on: fall armyworm larvae (Spodoptera frugiperda); experiment: Spodoptera frugiperda spray test (maize leaf sections); format: in vivo; details: Spodoptera frugiperda, 168 h, read-out: mortality in %
From the text: Spodoptera frugiperda—Spray Test
as §1, §2
Maize (Zea mays) leaf sections are sprayed with a preparation of the active ingredient of the desired concentration. Once dry, the leaf sections are infested with fall armyworm larvae (Spodoptera frugiperda).

[6] = tested on: cattle ticks (Boophilus microplus) strane Parhurst, SP-resistant; experiment: Boophilus microplus dip test (BOOPMI Dip); format: in vivo; details: 100 ppm, egg deposition after 7 days
From the text: Boophilus microplus—Diptest (BOOPMI Dip)
Test animal: cattle ticks (Boophilus microplus) strane Parhurst, SP-resistant
as §4
This compound solution is pipetted into tubes. 8-10 engorged, adult, female cattle ticks (Boophilus microplus) are placed in perforated tubes. These tubes are immersed in the aqueous compound solution until the ticks are completely moistened. After the liquid has drained off, the ticks are transferred to a filter paper in a plastic tray and stored in a climate chamber.
as §5

[7] = tested on: two-spotted spider mite (Tetranychus urticae); experiment: Tetranychus urticae spray test; OP-resistant (bean plants); format: in vivo; details: Tetranychus urticae, 168 h, read-out: mortality in %
[8] = logP determination by HPLC on reversed-phase column (C18), EEC Directive 79/831 Annex V.A8; format: physicochemical; details: reversed-phase C18, acetonitrile/water with formic acid
[9] = tested on: mustard beetle larvae (Phaedon cochleariae); experiment: Phaedon cochleariae spray test (cabbage leaves); details: in Brassica oleracea, 168 h, read-out: mortality in %
[10] = tested on: adult house flies (Musca domestica); experiment: Musca domestica test (MUSCDO); format: in vivo; details: Musca domestica, 48 h, read-out: mortality in %
From the text: Musca domestica—Test (MUSCDO)
as §4
10 adult house flies (Musca domestica) are transferred into a container, containing a sponge soaked with a mixture of sugar solution and compound solution of the desired concentration.

[11] = tested on: larvae of the Australian sheep blowfly (Lucilia cuprina); experiment: Lucilia cuprina test (LUCICU); format: in vivo; details: Lucilia cuprina, 48 h, read-out: mortality in %
Protocol: Lucilia cuprina—Test (LUCICU)
as §4
10 mg active compound are dissolved in 0.5 ml Dimethylsulfoxid. Serial dilutions are made to obtain the desired rates.
Approximately 20 […] instar larvae of the Australian sheep blowfly (Lucilia cuprina) are transferred into a test tube containing minced horse meat and compound solution of the desired concentration.

[12] = tested on: two spotted spidermite (Tetranychus urticae); experiment: Tetranychus urticae spray test OP-resistant (French bean leaf disks); format: in vivo; details: Tetranychus urticae, foliar, 144 h, read-out: mortality in %
Protocol: Tetranychus urticae—Spray Test OP-Resistant
as §1, §2
French bean (Phaseolus vulgaris) leaf disks which are heavily infested with all stages of the two spotted spidermite (Tetranychus urticae) are sprayed with a preparation of the active ingredient of the desired concentration.
as §3

[13] = tested on: Tick nymphs (Amblyomma hebraeum); experiment: Amblyomma hebraeum test (AMBYHE); format: in vivo; details: Amblyomma hebraeum, 1008 h, read-out: mortality in %
Protocol: Amblyomma hebraeum—Test (AMBYHE)
as §4
Tick nymphs (Amblyomma hebraeum) are placed in perforated plastic beakers and immersed in the aqueous compound solution for one minute. Ticks are transferred to a filter paper in a petridish and incubated in a climate chamber.

For CSc1c(C(F)(F)C(F)(F)F)nn(C)c1-n1cc(-c2ccc(Cl)c(C(=O)NC3(C#N)CC3)c2)cn1 [Example I-02, 2-chloro-N-(1-cyanocyclopropyl)-5-[2′-methyl-4′-(methylsulfanyl)-5′-(pentafluoroethyl)-2′H-1,3′-bipyrazol-4-yl]benzamide], the mortality at 100 g/ha [1] was 100%, the mortality at 100 g/ha [2] was 100% and the “efficacy (infertile eggs)” value [3] was 100%. For the same molecule, the mortality at 100 ppm [4] was 100%, the mortality at 100 g/ha [5] was 100% and the “efficacy (infertile eggs)” value [6] was 100%. The mortality at 4 ppm [7] was 100%, the logP [8] was 3.56 and the chromatographic logP ([8]; reversed-phase C18 HPLC column) was 3.58. It also gave a mortality at 4 ppm [9] of 100%, a mortality at 100 ppm [10] of 90% and a mortality at 100 ppm [11] of 100%. The mortality at 100 g/ha [12] was 100% and the mortality at 100 ppm [13] was 100%.
